The subject of test [1] is β-catenin-TCF-mediated reporter transcription activity in Colo 205 cells. The test can be described thus: Colo 205 reporter assay (TCF/LEF promoter-driven firefly luciferase). The class given is cell-based. The following applies: Homo sapiens; Colo 205 TCF/LEF luciferase reporter, 5 hours after compound addition, 384 well; read-out: Colo205 IC50. The source says: The compounds of the invention described herein were screened using the assay procedure for β-catenin-TCF-mediated reporter transcription activity described below.
Reporter cell lines were generated by stably transfecting cells of cancer cell lines (e.g., colon cancer) with a plasmid reporter construct (From SABiosciences, a QIAGEN company) that includes TCF/LEF promoter driving expression of the firefly luciferase gene. TCF/LEF reporter constructs were made in which TCF/LEF promoter, a promoter with optimal number of TCF/LEF binding sites designed by SABiosciences, was linked upstream of the firefly luciferase gene. This construct could also include a puromycin resistance gene as a selectable marker. This construct could also be used to stably transfect Colo 205 cells, a colon cancer cell line having a mutated APC gene that causes a constitutively active β-catenin. A control cell line was generated using another plasmid construct containing the luciferase gene under the control of a CMV basal promoter which is not activated by β-catenin.
Colo 205 Cultured cells with a stably transfected reporter construct were plated at approximately 10,000 cells per well into 384 well multi-well plates for twenty four hours. The testing compounds were then added to the wells in 2-fold serial dilutions using a twenty micromolar top concentration. A series of control wells for each cell type received only compound solvent. Five hours after the addition of compound, reporter activity for luciferase was assayed, by addition of the SteadyGlo luminescence reagent (Promega). The reporter luminescence activity was measured using Pherastar plate reader (BMG Labtech). Readings were normalized to DMSO only treated cells, and normalized activities were then used in the IC50 calculations. The Colo 205 reporter assay data are summarized in Table 3: A<0.3 μM; 0.3 μM≤B<1.0 μM; 1.0 μM≤C<5.0 μM; D≥5.0 μM.
In general terms: In a reporter assay the amount or activity of a reporter protein is the signal.

In test [2] the test system is XBP1(u)-luciferase splicing reporter in HepG2 hepatoma cells. The test can be described thus: HepG2 XBP1 reporter assay (XBP1(u)-Luc). The test is classed as cell-based. The following applies: Homo sapiens, 6 hours after compound addition, Table 3, read-out: XBP1-luc HepG2 1 EC50.

The results in this text go back to US11440907B1 (Merck Patent GmbH, priority 2018, dated 2022).

pEC50, pIC50: −log10 of the molar value.

One may read the pIC50 as the IC50 on a negative log10 scale, so that one unit is a factor of ten. The pEC50 is −log10 of the EC50, conventionally taken in molar units. On to `Cc1cc(N2CCCCCC2c2ccccc2)nc(N)n1` (racemic) [I-4, (+/−)-4-methyl-6-(2-phenylazepan-1-yl)pyrimidin-2-amine], for which the pIC50 in test [1] was 6.00 to 6.52. The pEC50 in test [2] is 5.30 to 5.70.
In the case of `Cc1cc(N2CCCCCC2c2ccccc2C)nc(N)n1` (racemic) [I-6, (+/−)-4-methyl-6-(2-(2-(methyl)phenyl)azepan-1-yl)pyrimidin-2-amine], the pIC50 in test [1] is 6.00 to 6.52. Further, the negative logarithm of the EC50 (pEC50) in test [2] was 5.30 to 5.70.
For `COc1ccc(C2CCCCCN2c2cc(C)nc(N)n2)cc1` (racemic) [I-23, (+/−)-4-[2-(4-methoxyphenyl)azepan-1-yl]-6-methyl-pyrimidin-2-amine] the same measures were 6.00 to 6.52 and ≤ 5.30.
In the case of `COc1ccc(OC)c(C2CCCCCN2c2cc(C)nc(N)n2)c1` (racemic) [I-25, (+/−)-4-(2-(2,5-dimethoxyphenyl)azepan-1-yl)-6-methylpyrimidin-2-amine], the pIC50 in test [1] was > 6.52. Also, the pEC50 in test [2] was 5.70 to 6.22.
`CCc1ccccc1C1CCCCCN1c1cc(C)nc(N)n1` (racemic) [I-45, (+/−)-4-(2-(2-ethylphenyl)azepan-1-yl)-6-methylpyrimidin-2-amine]: the negative-log IC50 (pIC50) in test [1] is 6.00 to 6.52. Besides, the pEC50 in test [2] is 5.70 to 6.22.
Take `COc1cccc(F)c1C1CCCCCN1c1cc(C)nc(N)n1` (racemic) [I-50, (+/−)-4-[2-(2-fluoro-6-methoxy-phenyl)azepan-1-yl]-6-methyl-pyrimidin-2-amine]: the negative-log IC50 (pIC50) in test [1] is 6.00 to 6.52. Moreover, in test [2], the negative-log EC50 (pEC50) is 5.70 to 6.22.
As to `CC(=O)Nc1cc(C2COCCCN2c2cc(C)nc(N)n2)c(Cl)cc1F` (racemic) [I-85, N-[5-[4-(2-amino-6-methyl-pyrimidin-4-yl)-1,4-oxazepan-3-yl]-4-chloro-2-fluoro-phenyl]acetamide], the pIC50 in test [1] was 6.00 to 6.52. Moreover, the pEC50 in test [2] is 5.70 to 6.22.
Turning to `Cc1cc(N2CCCOC[C@@H]2c2cc(NC(=O)CCO)ccc2Cl)nc(N)n1` (racemic) [I-174, (+/−)-N-[3-[4-(2-amino-6-methyl-pyrimidin-4-yl)-1,4-oxazepan-3-yl]-4-chloro-phenyl]-3-hydroxy-propanamide], the pIC50 in test [1] was 6.00 to 6.52. For the same compound, the negative-log EC50 (pEC50) in test [2] is 5.70 to 6.22.
As to `Cc1cc(N2CCCOCC2c2ccc(N3CCN(C)CC3)cc2Cl)nc(N)n1` (racemic) [I-225, (+/−)-4-[3-[2-chloro-4-(4-methylpiperazin-1-yl)phenyl]-1,4-oxazepan-4-yl]-6-methyl-pyrimidin-2-amine], in test [1], the pIC50 was 6.00 to 6.52. Also, in test [2], the negative-log EC50 (pEC50) is 5.70 to 6.22.
Take `Cc1cc(N2CCCOCC2c2ccc(N3CCCC3)cc2Cl)nc(N)n1` (racemic) [I-227, (+/−)-4-[3-(2-chloro-4-pyrrolidin-1-yl-phenyl)-1,4-oxazepan-4-yl]-6-methyl-pyrimidin-2-amine]: in test [1], the negative logarithm of the IC50 (pIC50) was 6.00 to 6.52. The pEC50 in test [2] was 5.70 to 6.22.
On to `Cc1cc(N2CCCOCC2c2ccc(NC(=O)C(C)(F)F)cc2Cl)nc(N)n1` (racemic) [I-228, (+/−)-N-(4-(4-(2-amino-6-methylpyrimidin-4-yl)-1,4-oxazepan-3-yl)-3-chlorophenyl)-2,2-difluoropropanamide], for which the pIC50 in test [1] is 6.00 to 6.52. Moreover, the pEC50 in test [2] is > 6.22.
As to `Cc1cc(N2CCCOCC2c2ccc(OCC3(C)CCOC3)cc2Cl)nc(N)n1` (racemic) [I-229, (+/−)-4-[3-[2-chloro-4-[(3-methyltetrahydrofuran-3-yl)methoxy]phenyl]-1,4-oxazepan-4-yl]-6-methyl-pyrimidin-2-amine], in test [1], the pIC50 was 6.00 to 6.52. Also, the negative-log EC50 (pEC50) in test [2] was > 6.22.
On to `Cc1cc(N2CCCOCC2c2ccc(OCCC(C)(C)O)cc2Cl)nc(N)n1` (racemic) [I-230, (+/−)-4-[4-[4-(2-amino-6-methyl-pyrimidin-4-yl)-1,4-oxazepan-3-yl]-3-chloro-phenoxy]-2-methyl-butan-2-ol], for which, in test [1], the negative logarithm of the IC50 (pIC50) is 6.00 to 6.52. In test [2], the pEC50 was > 6.22.
`Cc1cc(N2CCCOCC2c2ccc(OC3COC3)cc2Cl)nc(N)n1` (racemic) [I-231, (+/−)-4-[3-[2-chloro-4-(oxetan-3-yloxy)phenyl]-1,4-oxazepan-4-yl]-6-methyl-pyrimidin-2-amine]: in test [1], the pIC50 is > 6.52. The negative-log EC50 (pEC50) in test [2] is > 6.22.
Take `Cc1cc(N2CCCOCC2c2ccc(OC[C@@H](C)O)cc2Cl)nc(N)n1` (mixture of isomers) [I-232, (+/−)-1-(4-(4-(2-amino-6-methylpyrimidin-4-yl)-1,4-oxazepan-3-yl)-3-chlorophenoxy)propan-2-ol]: the pIC50 in test [1] is > 6.52. For the same compound, in test [2], the negative-log EC50 (pEC50) is > 6.22.
As to `Cc1cc(N2CCCOCC2c2ccc(OCC3(CO)CC3)cc2Cl)nc(N)n1` (racemic) [I-233, (+/−)-[1-[[4-[4-(2-amino-6-methyl-pyrimidin-4-yl)-1,4-oxazepan-3-yl]-3-chloro-phenoxy]methyl]-cyclopropyl]methanol], the pIC50 in test [1] was > 6.52. Besides, in test [2], the pEC50 was 5.70 to 6.22.
Turning to `Cc1cc(N2CCCOCC2c2ccc(C3CCCO3)cc2Cl)nc(N)n1` (racemic) [I-235, (+/−)-4-(3-(2-chloro-4-(tetrahydrofuran-2-yl)phenyl)-1,4-oxazepan-4-yl)-6-methylpyrimidin-2-amine], the pIC50 in test [1] is > 6.52. For the same compound, the negative-log EC50 (pEC50) in test [2] is > 6.22.
For `Cc1cc(N2CCCOCC2c2ccc(C(CO)CO)cc2Cl)nc(N)n1` (racemic) [I-236, (+/−)-2-(4-(4-(2-amino-6-methylpyrimidin-4-yl)-1,4-oxazepan-3-yl)-3-chlorophenyl)propane-1,3-diol], the negative-log IC50 (pIC50) in test [1] is > 6.52. For the same compound, the pEC50 in test [2] was > 6.22.
As for `Cc1cc(N2CCCOCC2c2ccc(C3CCOC3)cc2Cl)nc(N)n1` (racemic) [I-238, (+/−)-4-(3-(2-chloro-4-(tetrahydrofuran-3-yl)phenyl)-1,4-oxazepan-4-yl)-6-methylpyrimidin-2-amine], the pIC50 in test [1] was > 6.52. For the same compound, the negative logarithm of the EC50 (pEC50) in test [2] was > 6.22.
As to `Cc1cc(N2CCCOCC2c2ccc(C3CCC(=O)N3C)cc2Cl)nc(N)n1` (racemic) [I-239, (+/−)-5-(4-(4-(2-amino-6-methylpyrimidin-4-yl)-1,4-oxazepan-3-yl)-3-chlorophenyl)-1-methylpyrrolidin-2-one], the pIC50 in test [1] is 6.00 to 6.52. Further, the negative logarithm of the EC50 (pEC50) in test [2] was > 6.22.
Take `Cc1cc(N2CCCOCC2c2cc(NC(=O)C3CC3)ccc2Cl)nc(N)n1` (racemic) [I-241, (+/−)-N-[3-[4-(2-amino-6-methyl-pyrimidin-4-yl)-1,4-oxazepan-3-yl]-4-chloro-phenyl]cyclopropanecarboxamide]: the pIC50 in test [1] is > 6.52. Moreover, the pEC50 in test [2] is > 6.22.
`Cc1cc(N2CCCOCC2c2cc(NCCCO)ccc2Cl)nc(N)n1` (racemic) [I-249, (+/−)-3-[3-[4-(2-amino-6-methyl-pyrimidin-4-yl)-1,4-oxazepan-3-yl]-4-chloro-anilino]propan-1-ol]: the pIC50 in test [1] was > 6.52. For the same compound, in test [2], the pEC50 was > 6.22.
On to `Cc1cc(N2CCCOCC2c2cc(NC(=O)C(F)F)ccc2Cl)nc(N)n1` (racemic) [I-250, (+/−)-N-(3-(4-(2-amino-6-methylpyrimidin-4-yl)-1,4-oxazepan-3-yl)-4-chlorophenyl)-2,2-difluoroacetamide], for which, in test [1], the negative logarithm of the IC50 (pIC50) was > 6.52. Also, the pEC50 in test [2] is > 6.22.
With `Cc1cc(N2CCCOCC2c2cc(NC(=O)CC(C)(C)O)ccc2Cl)nc(N)n1` (racemic) [I-251, (+/−)-N-[3-[4-(2-amino-6-methyl-pyrimidin-4-yl)-1,4-oxazepan-3-yl]-4-chloro-phenyl]-3-hydroxy-3-methyl-butanamide], the pIC50 in test [1] was > 6.52. In addition, the pEC50 in test [2] is 5.70 to 6.22.
Regarding `CC(=O)N(C)Cc1ccc(C2COCCCN2c2cc(C)nc(N)n2)c(Cl)c1` (racemic) [I-254, (+/−)-N-(4-(4-(2-amino-6-methylpyrimidin-4-yl)-1,4-oxazepan-3-yl)-3-chlorobenzyl)-N-methylacetamide], in test [1], the pIC50 was > 6.52. The negative-log EC50 (pEC50) in test [2] is > 6.22.
For `Cc1cc(N2CCCOCC2c2ccc(C3COC3)cc2Cl)nc(N)n1` (racemic) [I-255, (+/−)-4-[3-[2-chloro-4-(oxetan-3-yl)phenyl]-1,4-oxazepan-4-yl]-6-methyl-pyrimidin-2-amine] the same measures were > 6.52 and 5.70 to 6.22.
For `Cc1cc(N2CCCOCC2c2ccc(C3CCCN3)cc2Cl)nc(N)n1` (racemic) [I-267] the same measures were > 6.52 and > 6.22.
For `Cc1cc(N2CCCOCC2c2cc3c(cc2Cl)SCC(=O)N3)nc(N)n1` (racemic) [I-268, 6-[4-(2-amino-6-methyl-pyrimidin-4-yl)-1,4-oxazepan-3-yl]-7-chloro-4H-1,4-benzothiazin-3-one] the same measures were > 6.52 and > 6.22.
Turning to `Cc1cc(N2CCCOCC2c2ccc(N3CCN(C(=O)C4CC4)CC3)cc2Cl)nc(N)n1` (racemic) [I-273, (+/−)-[4-[4-[4-(2-amino-6-methyl-pyrimidin-4-yl)-1,4-oxazepan-3-yl]-3-chloro-phenyl]piperazin-1-yl]-cyclopropyl-methanone], the pIC50 in test [1] is > 6.52. Further, in test [2], the pEC50 was > 6.22.
